This is an account of results in article PMC7849180 (Frontiers in Pharmacology, 2020).

Series [1] can be described thus: Metabolic stability in liver microsomes. Format: in vitro ADME, monkey. On the procedure:
The metabolic stability of ZG0128 (the dihydrochloride monohydrate of ZG0163) was evaluated using human, monkey, dog, rat, and mouse liver microsomes as the in vitro models. The percentages of residues for ZG0128 after incubating in human, monkey, dog, rat, and mouse liver microsomes for 60 minutes was 55.5%, 63.1%, 67.1%, 80.3%, and 79.0%, respectively. The CLint values of in vivo clearance were calculated to be 24.1, 21.6, 33.4, 10.7, 26.0 mL/min/kg, respectively. Thus its was speculated that ZG0128 was a medium clearance drug in humans, monkeys, and mice, a high clearance drug in dogs, and a low clearance drug in rats.
Using UPLC-UV/Q-TOF MS, the potential metabolites of ZG0128 in various liver microsomes (human, monkey, dog, rat and mouse liver microsomes) incubation systems were identified and the metabolic pathways of ZG0128 were speculated. The main metabolite of ZG0128 in above five types of liver microsomes were primary alcohol metabolite formed by morpholine ring-opening (M3). […]
On the technique in general: Liver microsomes are vesicles of endoplasmic reticulum, rich in cytochrome P450 enzymes.

A short description of series [2]: 28-day oral gavage toxicity. Format: in vivo, Wistar rats. Conditions: for drug exposure: 24.4 mg/kg. On the procedure:
Suzhou Zelgen Biopharmaceuticals Co., Ltd. Jaktinib Hydrochloride Tablets Chemical Drug Class 1 New Drug […]
active ingredient ZG0163). The control group contained 36 Wistar rats (6 rats were used for the toxicokinetic test) and each group of ZG0128 contained 54 rats (24 rats in each group were used for the toxicokinetic test), with half males and half females. The rats in each group were given the control substance (0.5% CMC-Na solution) or the corresponding concentrations of ZG0128 in a 10 mL/kg volume by oral gavage once a […]
The day of the first dose […]
is defined as day 1 of the dosing period, while the day of anatomy after the last dose is defined as day 1 of the recovery period. During the dosing period and the recovery […]
the body weight and food intake of the rats were measured twice a week during the […]
recovery periods, respectively. In the 219.6 mg/kg group, 12 (3 females, 9 males) and […]
and recovery periods, respectively. The rats in each group were anesthetized to collect blood samples for hematology and blood biochemistry tests. After the rats were […]
histopathological examination of tissue samples were performed. For the rats in […]
ZG0128 groups used for toxicokinetic test, their blood samples were collected before the first dose and last dose as well as 0.5, 1, 2, 3, 4, 6, 10, and 24 h after the first dose and last dose. For the rats in the control group, their blood samples were collected before the first dose and last dose and 3 h after the first dose and last dose, respectively.
LC-MS/MS was used to measure the concentrations of the original drug ZG0163 and its amide hydrolysis metabolite ZG0245 in the blood samples collected at various time […]
tissues, spleen, thymus, and bone marrow), digestive system (gastrointestinal tract, pancreas, and submandibular gland), reproduction system, kidney, and bones. The drug caused abnormal indicators related to liver, renal, and pancreatic functions, as well as decreased lymphocytes and platelets. At the dose of 73.2 mg/kg, some of the above lesions could be observed, but the severity of the lesions was mild. After drug discontinuation, the lesions in the submandibular gland, testis, and epididymis were still visible in 73.2 and 219.6 mg/kg groups, and the severity of the lesions was not […]
disappeared after drug discontinuation.
In the dose range of 24.4 to 219.6 mg/kg, the exposure to ZG0128 and its metabolite ZG0245 in female and male rats increased in proportion to the dose, and no significant gender difference was observed. After 28 days of consecutive administration, […]
both female and male rats of each dose group.
After the Wistar rats were given 24.4, 73.2, and 219.6 mg/kg of ZG0128 by oral […]
mg/kg. At this dose, the drug exposure dose in female rats on the first day of dosing […]
10124 h•ng/mL in male rats. On day 28 of dosing, the drug exposure dose in female

Series [3] can be described thus: Estimate of human equivalent and starting dose from animal NOAEL. Conditions: for maximum safe starting dose in human: safety factor 10; for MRSD: safety factor 10, 60 kg. On the procedure: The human equivalent doses (HED) for the above tests were 9 mg/kg and 5 mg/kg, respectively (Table 9). According to the "Guidance for Estimating the Maximum Recommended Dose in Initial Clinical Trials for Therapeutics in Adult Healthy Volunteers" issued by CFDA and a safety factor of 10, the maximum safe starting doses for the first dose in human were calculated as about 50 mg and 30 mg, respectively.
The single starting dose of this study was set to 25 mg, while the highest dose was set to 400 mg. The 400 mg dose would not be further increased even it was […]
Animal Test Anima Dosage HNSTD HED MRSD […]
Toxicity Test 61.0/oral gavage in Beagle Dogs 196.2/oral gavage a The safety factor was 10, while the human body weight was calculated as 60 kg. […]

Series [4] in a line: PK, single intravenous dose. Format: in vivo, beagles. Conditions: 12.2 mg ZG0128 (1.22 mg/kg). On the procedure: Suzhou Zelgen Biopharmaceuticals Co., Ltd. Jaktinib Hydrochloride Tablets Chemical Drug Class 1 New Drug
Pharmacokinetics of single dose intravenous administration in beagles.
After intravenous administration of 12.2 mg ZG0128 (the average weight of the beagles was about 10 kg, so the dose given equals to 1.22 mg/kg ZG0128), ZG0163 […]
AUC0-t was 70.1% of that of the original drug.
Pharmacokinetics of single-dose intragastric administration.
The average Tmax of ZG0163 was 2.0 h after a single-dose intragastric administration of 1, 2, and 4 ZG0128 tablets (corresponding to 61, 122, and 244 […]
mg/ZG0128). […] The plasma […]
exposure AUC0-t was 459, 948, and 1728 ng•h/mL (mean) and the average plasma […]
There were large individual differences in plasma exposure AUC0-t in dogs. The pharmacokinetic differences between genders could not be determined. Within the range of 61-244 mg, the AUC0-t of ZG0163 increased proportionally with the increasing dosage. The average Tmax of metabolite ZG0245 was 2.0 h. The plasma exposure of metabolite ZG0245 was roughly 2.16 times

Consider `Cl.Cl.O.[2H]C1([2H])COCC([2H])([2H])N1c1ccc(Nc2nccc(-c3ccc(C(=O)NCC#N)cc3)n2)cc1` [ZG0128, Jaktinib Dihydrochloride Monohydrate], for which, in series [1], the “CLint of in vivo clearance” value came to 21.6 mL/min/kg and the “percentage of residue after 60 minutes” value is listed as 63.1%. In series [2] (28 consecutive days), the “highest non-severely toxic dose (HNSTD)” value came out at 24.4 mg/kg. Also, in series [2] (28 days), the “dose causing dying or death” value came to 219.6 mg/kg.
With Jaktinib, the “human equivalent dose (HED)” value in series [3] (from 26-week rat NOAEL) is reported as 5 mg/kg; in series [3] (from 28-day Beagle dog NOAEL), 9 mg/kg. For the same molecule, the “maximum safe starting dose in human” value in series [3] (from dog NOAEL) is recorded as “about 50 mg”; in series [3] (from rat NOAEL) it was ~30 mg. Also, the MRSD was 54 mg/day in series [3] (from dog NOAEL) and 30 mg/day in series [3] (from rat NOAEL). Further, the “plasma clearance CL” value in series [4] was found to be 49.3 mL/min/kg. In addition, in series [4], the “volume of distribution Vss” value is on record as 3.49 L/kg. Moreover, the drug exposure in series [2] (female rats, day 28) worked out at 51893 ± 20625 ng·h/mL; in series [2] (female rats, first day), 60887 ± 21040 ng·h/mL; in series [2] (male rats, day 28), 46522 ± 17149 ng·h/mL; in series [2] (male rats, first day), 50799 ± 10124 ng·h/mL.
